pEC50: −log10 of the molar value.

Results on two compounds are retold here after paper PMC8957877, “The Resistance of Cancer Cells to Palbociclib, a Cyclin-Dependent Kinase 4/6 Inhibitor, is Mediated by the ABCB1 Transporter” (Frontiers in Pharmacology, 2022).

The target in series [1] is T1, ABCB1 transporter (Homo sapiens, UniProt P08183). The experiment in a line: biochemical.
Series [2] addresses T1, ABCB1 transporter.

T1 sequence (P08183 whole entry): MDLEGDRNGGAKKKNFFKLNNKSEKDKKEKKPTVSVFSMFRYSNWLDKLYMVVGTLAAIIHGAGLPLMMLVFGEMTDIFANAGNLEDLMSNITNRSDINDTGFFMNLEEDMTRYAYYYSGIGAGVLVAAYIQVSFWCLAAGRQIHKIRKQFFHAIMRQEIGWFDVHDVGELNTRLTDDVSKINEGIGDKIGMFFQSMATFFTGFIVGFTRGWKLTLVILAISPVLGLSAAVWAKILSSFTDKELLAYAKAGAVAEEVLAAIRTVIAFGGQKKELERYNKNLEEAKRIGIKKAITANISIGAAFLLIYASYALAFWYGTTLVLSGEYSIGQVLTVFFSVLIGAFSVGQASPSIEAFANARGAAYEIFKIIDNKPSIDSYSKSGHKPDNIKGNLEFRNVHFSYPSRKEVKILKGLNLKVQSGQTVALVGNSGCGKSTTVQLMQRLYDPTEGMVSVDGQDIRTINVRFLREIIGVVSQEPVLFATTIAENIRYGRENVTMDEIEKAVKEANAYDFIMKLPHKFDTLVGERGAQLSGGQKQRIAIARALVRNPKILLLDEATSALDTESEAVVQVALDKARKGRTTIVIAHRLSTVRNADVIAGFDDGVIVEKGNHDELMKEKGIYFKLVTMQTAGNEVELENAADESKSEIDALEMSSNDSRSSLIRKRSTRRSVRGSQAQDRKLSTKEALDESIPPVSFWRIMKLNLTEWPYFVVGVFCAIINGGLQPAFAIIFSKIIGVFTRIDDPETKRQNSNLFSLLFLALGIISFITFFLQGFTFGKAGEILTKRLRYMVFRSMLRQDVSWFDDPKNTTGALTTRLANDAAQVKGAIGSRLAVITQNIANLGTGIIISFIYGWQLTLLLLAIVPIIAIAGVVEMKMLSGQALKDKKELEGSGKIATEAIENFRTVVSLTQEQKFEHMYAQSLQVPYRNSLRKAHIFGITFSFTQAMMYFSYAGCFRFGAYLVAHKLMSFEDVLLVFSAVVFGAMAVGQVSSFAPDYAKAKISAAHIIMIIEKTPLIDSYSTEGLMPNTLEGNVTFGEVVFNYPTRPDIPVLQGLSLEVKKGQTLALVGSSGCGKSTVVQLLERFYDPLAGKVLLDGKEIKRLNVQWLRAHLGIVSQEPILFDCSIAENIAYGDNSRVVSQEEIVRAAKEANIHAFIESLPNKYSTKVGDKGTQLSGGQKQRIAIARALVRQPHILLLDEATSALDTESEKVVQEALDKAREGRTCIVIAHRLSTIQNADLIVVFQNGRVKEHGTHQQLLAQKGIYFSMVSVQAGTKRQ

Broadly, the pEC50 is the EC50 on a negative log10 scale, so that one unit is a factor of ten. As to `CC(=O)c1c(C)c2cnc(Nc3ccc(N4CCNCC4)cn3)nc2n(C2CCCC2)c1=O` [palbociclib], the pEC50 in series [1] was 5.33. With `CC(=O)O[C@H]1C(=O)[C@@]2(C)[C@H]([C@H](OC(=O)c3ccccc3)[C@]3(O)C[C@H](OC(=O)[C@H](O)[C@@H](NC(=O)c4ccccc4)c4ccccc4)C(C)=C1C3(C)C)[C@]1(OC(C)=O)CO[C@@H]1C[C@@H]2O` [[^3H]-paclitaxel], the “radiolabelled substrate accumulation/efflux in ABCB1-overexpressing KB-C2 vs par” value in series [2] is “significantly greater than that of KB-C2 drug-resistant cancer cell line, due to an increase in the extrusion of [^3H]-paclitaxel”.
